Experimental data: patent publication US9708267B2, “Activators of human pyruvate kinase” (The United States of America, as represented by the …, priority 2010, dated 2017)
Where two headings read alike, the source gives them in different places. One block for each compound: values may come before it.

Biological target: hPK, M2 (Homo sapiens, UniProt P14618)
Test: luminescent pyruvate kinase-luciferase coupled assay (qHTS)
Format: biochemical
Details: for Emax: read-out: Max. Res.; for activation at 57 µM: % activation at 57 μM of compound, read-out: hPK, M2 Max. Res.
Protocol: AC50 values were determined utilizing the luminescent pyruvate kinase-luciferase coupled assay (Inglese, J. et al, Quantitative high-throughput screening: a titration-based approach that efficiently identifies biological activities in large chemical libraries. Proc. Natl. Acad. Sci. U.S.A. 2006, 103, 11473-11478).
Luminescent Pyruvate Kinase-Luciferase Coupled Assay.
Production of a luminescent signal based on the generation of ATP by pyruvate kinase was determined by using the ATP-dependent enzyme firefly luciferase. Three μL of substrate mix (at r.t.) in assay buffer (50 mM imidazole pH 7.2, 50 mM KCl, 7 mM MgCl2, 0.01% tween 20, 0.05% BSA) was dispensed into Kalypsys (San Diego, Calif., USA) white solid bottom 1,536 well microtiter plates using a bottle-valve solenoid-based dispenser (Kalypsys). The final concentrations of substrates in the assay were 0.1 mM ADP and 0.5 mM PEP. Twenty-three nL of compound in DMSO were delivered with a 1,536-pin array tool, and 1 μL of enzyme mix in assay buffer (final concentration, 0.1 nM pyruvate kinase, 50 mM imidazole pH 7.2, 0.05% BSA, 4° C.) was added. Microtiter plates were incubated at r.t. for 1 hour and 2 uL of luciferase detection mix (Kinase-Glo from Promega, Madison, Wis., USA) at 4° C. protected from light, was added and luminescence was read with a ViewLux (Perkin Elmer, Waltham, Mass., USA) using a 2 second exposure/plate (with 2× binning). The final concentration of DMSO was 0.5% and found not to affect the assay signal.
Data was normalized for AC50 values to control columns containing uninhibited enzyme (n), and AC100 inhibition (i) according the following equation: Activation (%)=[(c−n)/(n−i)]*100 where c=compound, n=DMSO neutral, i=no enzyme control. A % activity of 100% is approximately a 2-fold increase over basal assay signal (% Activation by FBP was variable but averaged 100%). Monitoring of activation was accomplished using enzyme at 3× the final concentration.
All compounds were screened using a qHTS approach, where compounds are assayed using at least seven concentrations to generate concentration-response curves for every compounds. Briefly, qHTS uses an inter-plate dilution method where the first plate contains the highest concentration of a set of compounds in DMSO, while subsequent plates contain the same compounds in the same well locations, but at successive lower concentrations. Using the protocol outlined above, the rate was calculated as a plate throughput of 18 plates/hr or approximately 7 samples/sec on the Kalypsys robotic system which means that a 7 point CRC was obtained every second on the robotic system.

[1] = Table 4, maximum response (activation)
[2] = linkage variants of compound 4, read-out: AC50
[3] = Table 4, 0.1 mM ADP, 0.5 mM PEP, read-out: AC50
[4] = Table 2, 0.1 mM ADP, 0.5 mM PEP, mean of three replicate experiments, read-out: hPK, M2 AC50
[5] = Table 2, mean of three replicate experiments
[6] = Table 1, 0.1 mM ADP, 0.5 mM PEP, mean of three replicate experiments, read-out: hPK, M2 AC50
[7] = Table 1, mean of three replicate experiments
[8] = Table 3, 0.1 mM ADP, 0.5 mM PEP, mean of three replicate experiments, read-out: hPK, M2 AC50
[9] = Table 3, mean of three replicate experiments

Sequence of hPK, M2 (P14618 whole entry): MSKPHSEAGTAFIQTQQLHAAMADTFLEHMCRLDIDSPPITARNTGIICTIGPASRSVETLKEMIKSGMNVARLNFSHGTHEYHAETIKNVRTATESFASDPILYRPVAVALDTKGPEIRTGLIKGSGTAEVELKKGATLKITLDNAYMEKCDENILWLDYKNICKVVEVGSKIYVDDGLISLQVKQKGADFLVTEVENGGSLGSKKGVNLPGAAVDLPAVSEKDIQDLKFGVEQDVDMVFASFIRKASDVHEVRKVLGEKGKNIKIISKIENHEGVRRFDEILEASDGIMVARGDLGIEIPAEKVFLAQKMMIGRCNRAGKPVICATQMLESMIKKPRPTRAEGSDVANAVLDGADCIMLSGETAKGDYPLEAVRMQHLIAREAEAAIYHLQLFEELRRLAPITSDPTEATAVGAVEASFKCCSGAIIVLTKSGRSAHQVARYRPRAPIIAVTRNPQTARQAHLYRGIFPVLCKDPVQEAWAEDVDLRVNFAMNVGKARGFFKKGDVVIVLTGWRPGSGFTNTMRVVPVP

Max. Res. [1]: 5
AC50 [2]: 40000 nM
Emax (linkage variants of compound 4): 5%
Structure (SMILES): Cc1ccc(NC(=O)c2ccc3c(c2)CCC(=O)N3)cc1C [Compound 42, N-(3,4-dimethylphenyl)-2-oxo-1,2,3,4-tetrahydroquinoline-6-carboxamide]

AC50 [3]: 1160 nM
Emax [1]: 109%
Structure (SMILES): Cc1c(Cl)cccc1NS(=O)(=O)c1cc2c(cc1Cl)CCC(=O)N2 [Compound 59, 6-chloro-N-(3-chloro-2-methylphenyl)-2-oxo-1,2,3,4-tetrahydroquinoline-7-sulfonamide]

AC50 [3]: 370 nM
Emax [1]: 121%
Structure (SMILES): Cc1cc(NS(=O)(=O)c2ccc3c(c2)CCC(=O)N3)ccc1F [Compound 53, N-(4-fluoro-3-methylphenyl)-2-oxo-1,2,3,4-tetrahydroquinoline-6-sulfonamide]

AC50 [3]: 920 nM
Emax [1]: 108%
Structure (SMILES): Cc1ccc(NS(=O)(=O)c2cc3c(cc2Cl)NC(=O)C3)cc1C [Compound 57, 6-chloro-N-(3,4-dimethylphenyl)-2-oxoindoline-5-sulfonamide]

AC50 [3]: 820 nM
Emax [1]: 99.3%
Structure (SMILES): O=C1CCc2cc(S(=O)(=O)Nc3cccc(B(O)O)c3)ccc2N1 [Compound 52, 3-(2-oxo-1,2,3,4-tetrahydroquinoline-6-sulfonamido)phenylboronic acid]

AC50 [3]: 80 nM
Emax [1]: 124%
Structure (SMILES): Cc1ccc(NS(=O)(=O)c2cc3c(cc2N[C@@H](C)CO)NC(=O)CC3)cc1Cl [Compound 71, (S)—N-(3-chloro-4-methylphenyl)-7-(l-hydroxypropan-2-ylamino)-2-oxo-1,2,3,4-tetrahydroquinoline-6-sulfonamide]

AC50 [4]: 10000 nM
activation at 57 µM [5]: 99%
Structure (SMILES): O=C1CCc2cc(S(=O)(=O)Nc3ccc(F)cc3)ccc2N1 [Compound 23, N-(4-fluorophenyl)-2-oxo-1,2,3,4-tetrahydroquinoline-6-sulfonamide]

AC50 [3]: 2910 nM
Emax [1]: 109%
Structure (SMILES): Cc1ccc(Cl)cc1NS(=O)(=O)c1cc2c(cc1Cl)CCC(=O)N2 [Compound 45, 6-chloro-N-(5-chloro-2-methylphenyl)-2-oxo-1,2,3,4-tetrahydroquinoline-7-sulfonamide]

AC50 [3]: 140 nM
Emax [1]: 95%
Structure (SMILES): C[C@@H](CO)Nc1cc2c(cc1S(=O)(=O)Nc1ccc(F)c(Cl)c1)CCC(=O)N2 [Compound 73, (S)—N-(3-chloro-4-fluorophenyl)-7-(1-hydroxypropan-2-ylamino)-2-oxo-1,2,3,4-tetrahydroquinoline-6-sulfonamide]

AC50 [4]: 10000 nM
activation at 57 µM [5]: 101%
Structure (SMILES): O=C1CCc2cc(S(=O)(=O)Nc3cccc4ccccc34)ccc2N1 [Compound 28, N-(naphthalen-1-yl)-2-oxo-1,2,3,4-tetrahydroquinoline-6-sulfonamide]

AC50 [3]: 9190 nM
Emax [1]: 97%
Structure (SMILES): N#Cc1cccc(NS(=O)(=O)c2ccc3c(c2)CCC(=O)N3)c1 [Compound 46, N-(3-cyanophenyl)-2-oxo-1,2,3,4-tetrahydroquinoline-6-sulfonamide]

AC50 [4]: 7300 nM
activation at 57 µM [5]: 85%
Structure (SMILES): O=C1CCc2cc(S(=O)(=O)Nc3ccccc3F)ccc2N1 [Compound 26, N-(2-fluorophenyl)-2-oxo-1,2,3,4-tetrahydroquinoline-6-sulfonamide]

AC50 [6]: 21000 nM
activation at 57 µM [7]: 59%
Structure (SMILES): Cc1ccc(NS(=O)(=O)c2ccc3[nH]c(=O)[nH]c3c2)cc1C [Compound 9, N-(3,4-dimethylphenyl)-2-oxo-2,3-dihydro-1H-benzo[d]imidazole-5-sulfonamide]

AC50 [3]: 650 nM
Emax [1]: 112%
Structure (SMILES): Cc1ccc(NS(=O)(=O)c2cc3c(cc2Cl)CCC(=O)N3)cc1Cl [Compound 49, 6-chloro-N-(3-chloro-4-methylphenyl)-2-oxo-1,2,3,4-tetrahydroquinoline-7-sulfonamide]

AC50 [6]: 1800 nM
activation at 57 µM [7]: 65%
Structure (SMILES): CC(=O)N1CCc2cc(S(=O)(=O)Nc3ccc(C)c(C)c3)ccc21 [Compound 11, 1-acetyl-N-(3,4-dimethylphenyl)indoline-5-sulfonamide]

AC50 [3]: 2590 nM
Emax [1]: 118%
Structure (SMILES): Cc1c(Cl)cccc1NS(=O)(=O)c1cc2c(cc1F)NC(=O)CC2 [Compound 50, N-(3-chloro-2-methylphenyl)-7-fluoro-2-oxo-1,2,3,4-tetrahydroquinoline-6-sulfonamide]

AC50 [6]: 14500 nM
activation at 57 µM [7]: 130%
Structure (SMILES): Cc1ccc(NS(=O)(=O)c2ccc3c(c2)CC(=O)N3)cc1C [Compound 5, N-(3,4-dimethylphenyl)-2-oxoindoline-5-sulfonamide]

AC50 [6]: 20000 nM
activation at 57 µM [7]: 40%
Structure (SMILES): Cc1ccc(NS(=O)(=O)c2ccc3c(ccn3C)c2)cc1C [Compound 12, N-(3,4-dimethylphenyl)-1-methyl-1H-indole-5-sulfonamide]

Max. Res. [1]: 36.00
AC50 [2]: 23100 nM
Emax (linkage variants of compound 4): 36%
Structure (SMILES): Cc1ccc(N(C)S(=O)(=O)c2ccc3c(c2)CCC(=O)N3)cc1C [Compound 41, N-(3,4-dimethylphenyl)-N-methyl-2-oxo-1,2,3,4-tetrahydroquinoline-6-sulfonamide]

AC50 [3]: 2590 nM
Emax [1]: 126%
Structure (SMILES): O=C1CCc2cc(S(=O)(=O)Nc3ccc(Cl)c(Cl)c3)ccc2N1 [Compound 44, N-(3,4-dichlorophenyl)-2-oxo-1,2,3,4-tetrahydroquinoline-6-sulfonamide]

AC50 [4]: 2900 nM
activation at 57 µM [5]: 87%
Structure (SMILES): O=C1CCc2cc(S(=O)(=O)Nc3ccc4ccccc4c3)ccc2N1 [Compound 27, N-(naphthalen-2-yl)-2-oxo-1,2,3,4-tetrahydroquinoline-6-sulfonamide]

AC50 [4]: 14000 nM
activation at 57 µM [5]: 25%
Structure (SMILES): O=C1CCc2cc(S(=O)(=O)NCc3ccccc3)ccc2N1 [Compound 30, N-benzyl-2-oxo-1,2,3,4-tetrahydroquinoline-6-sulfonamide]

AC50 [8]: 160 nM
activation at 57 µM [9]: 53%
Structure (SMILES): CNc1cc2c(cc1S(=O)(=O)Nc1ccc(C)c(C)c1)CCC(=O)N2 [Compound 33, N-(3,4-dimethylphenyl)-7-(methylamino)-2-oxo-1,2,3,4-tetrahydroquinoline-6-sulfonamide]

AC50 [8]: 18000 nM
activation at 57 µM [9]: 103%
Structure (SMILES): Cc1ccc(NS(=O)(=O)c2cc3c(cc2Br)NC(=O)CO3)cc1C [Compound 38, 6-bromo-N-(3,4-dimethylphenyl)-3-oxo-3,4-dihydro-2H-benzo[b][1,4]oxazine-7-sulfonamide]

AC50 [3]: 820 nM
Emax [1]: 94.2%
Structure (SMILES): Cc1cc(NS(=O)(=O)c2cc3c(cc2F)NC(=O)CC3)ccc1Cl [Compound 56, N-(4-chloro-3-methylphenyl)-7-fluoro-2-oxo-1,2,3,4-tetrahydroquinoline-6-sulfonamide]

AC50 [8]: 920 nM
activation at 57 µM [9]: 115%
Structure (SMILES): Cc1ccc(NS(=O)(=O)c2cc3c(cc2F)NC(=O)CC3)cc1C [Compound 31, N-(3,4-dimethylphenyl)-7-fluoro-2-oxo-1,2,3,4-tetrahydroquinoline-6-sulfonamide]

AC50 [4]: 3200 nM
activation at 57 µM [5]: 94%
Structure (SMILES): O=C1CCc2cc(S(=O)(=O)Nc3ccc(Cl)cc3)ccc2N1 [Compound 20, N-(4-chlorophenyl)-2-oxo-1,2,3,4-tetrahydroquinoline-6-sulfonamide]

AC50 [3]: 460 nM
Emax [1]: 124%
Structure (SMILES): Cc1ccc(NS(=O)(=O)c2cc3c(cc2N2CCCC2)NC(=O)CC3)cc1C [Compound 62, N-(3,4-dimethylphenyl)-2-oxo-7-(pyrrolidin-1-yl)-1,2,3,4-tetrahydroquinoline-6-sulfonamide]

AC50 [4]: 3900 nM
activation at 57 µM [5]: 96%
Structure (SMILES): Cc1ccccc1NS(=O)(=O)c1ccc2c(c1)CCC(=O)N2 [Compound 24, 2-oxo-N-o-tolyl-1,2,3,4-tetrahydroquinoline-6-sulfonamide]

AC50 [8]: 260 nM
activation at 57 µM [9]: 104%
Structure (SMILES): Cc1ccc(NS(=O)(=O)c2cc3c(cc2Cl)CCC(=O)N3)cc1C [Compound 35, 6-chloro-N-(3,4-dimethylphenyl)-2-oxo-1,2,3,4-tetrahydroquinoline-7-sulfonamide]
